In patent US11912699B2, “Tau-protein targeting compounds and associated” (Arvinas Operations, Inc., priority 2019, dated 2024):
Like-named read-outs stand apart in the source and are kept apart here.

Target: T1, Tau P301L (Homo sapiens, UniProt P10636, P618L)
T1 construct: expressed in transfected cells
Assay: In vitro tau degradation assay in CHOK1 Tau P301L cells (sarkosyl insoluble tau, WES)
Type: cell-based
Details: relative to DMSO doxycycline control; for remaining activity at 1 µM: CHO-K1, read-out: Tau Protein Degradation effect at 1 μM
In short: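 T-Rex CHOK1 clone D1 with doxycycline-inducible (1 μg/ml) Tau P301L treated 48 h with compound at 1 μM, doxycycline removed for the final 24 h. Sarkosyl-insoluble tau quantified by WES capillary electrophoresis with Tau1 antibody, expressed relative to DMSO doxycycline control and binned as ≤50% or >50% remaining.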

[1] = remaining tau protein in sarkosyl insoluble pellet, CHOK1 Tau P301L cells treated 48 hours with test compound at 1 μM, doxycycline removed for the last 24 hours

T1 sequence (P10636 1-441 isoform P10636-8 P301L): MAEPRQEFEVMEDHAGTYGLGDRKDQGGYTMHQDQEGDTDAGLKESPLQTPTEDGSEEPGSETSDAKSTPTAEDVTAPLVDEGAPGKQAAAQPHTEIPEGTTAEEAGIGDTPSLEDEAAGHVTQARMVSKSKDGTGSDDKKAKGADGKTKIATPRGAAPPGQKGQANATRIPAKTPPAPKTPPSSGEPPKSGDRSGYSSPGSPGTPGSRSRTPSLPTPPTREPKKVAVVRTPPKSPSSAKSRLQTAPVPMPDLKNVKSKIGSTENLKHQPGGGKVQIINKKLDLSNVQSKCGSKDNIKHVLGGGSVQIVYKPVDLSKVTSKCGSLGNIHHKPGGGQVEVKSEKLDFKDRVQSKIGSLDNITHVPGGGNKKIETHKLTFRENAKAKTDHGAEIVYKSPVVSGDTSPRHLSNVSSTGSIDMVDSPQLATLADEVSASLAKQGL

Row | remaining activity at 1 µM [1] | Structure (SMILES) | also measured
1 | < 50% | O=C1CCC(N2C(=O)c3ccc(N4CCN(CC5CCN(C[C@H]6C[C@H](Oc7ncc(-c8ccc9c%10cnccc%10n(C(F)F)c9c8)cc7F)C6)CC5)CC4)cc3C2=O)C(=O)N1 (stereo partly drawn) [Compound 667, 5-(4-((1-(((1r,3r)-3-((5-(5-(difluoromehtyl)-5H-pyrido[4,3-b]indol-7-yl)-3-fluoropyridin-2-yl)oxy)cyclobutyl)methyl)piperidin-4-yl)methyl)piperazin-1-yl)-2-(2,6-dioxopiperidin-3-yl) isoindoline-1,3-dione] | 
2 | < 50% | O=C1CCC(N2C(=O)c3ccc(N4CCN(CCC5CCN(c6ccc(-c7c(F)cc8c9cnccc9n(C(F)F)c8c7F)cn6)CC5)CC4)cc3C2=O)C(=O)N1 (stereo not drawn) [Compound 679, 5-(4-(2-(1-(5-(5-(difluoromethyl)-6,8-difluoro-5H-pyrido[4,3-b]indol-7-yl)pyridin-2-yl)piperidin-4-yl)ethyl)piperazin-1-yl)-2-(2,6-dioxopiperidin-3-yl)isoindoline-1,3-dione] | 
3 | < 50% | O=C1CCC(N2C(=O)c3ccc(N4CCN(CCC5CCN(c6c(F)cc(-c7ccc8c9cnccc9n(C(F)F)c8n7)cc6F)CC5)CC4)cc3C2=O)C(=O)N1 (stereo not drawn) [Compound 676, 5-(4-(2-(1-(4-(9-(difluoromethyl)-9H-pyrrolo[2,3-b:4,5-c′]dipyridin-2-yl)-2,6-difluorophenyl)piperidin-4-yl)ethyl)piperazin-1-yl)-2-(2,6-dioxopiperidin-3-yl)isoindoline-1,3-dione] | 

More lines, now with the values behind:

Row | Structure (SMILES) | remaining activity at 1 µM [1] | also measured
4 | Nc1cccc2cnc(-n3ccc4cc(OCCOCCOCCOCCOc5ccc6c(c5)C(=O)N(C5CCC(=O)NC5=O)C6=O)ncc43)cc12 (stereo not drawn) [Compound 353, 5-(2-(2-(2-(2-((1-(5-aminoisoquinolin-3-yl)-1H-pyrrolo[2,3-c]pyridin-5-yl)oxy)ethoxy)ethoxy)ethoxy)ethoxy)-2-(2,6-dioxopipieridin-3-yl)isoindoline-1,3-dione] | < 50% | 
5 | Cn1c2ccncc2c2ccc(C3CCN(CCC4CCN(c5ccc6c(c5)C(=O)N(C5CCC(=O)NC5=O)C6=O)CC4)CC3)cc21 (stereo not drawn) [Compound 498, 2-(2,6-dioxopiperidin-3-yl)-5-(4-(2-(4-(5-methyl-5H-pyrido[4,3-b]indol-7-yl)piperidin-1-yl)ethyl)piperidin-1-yl)isoindoline-1,3-dione] | < 50% | 
6 | CN(C)c1ccn2cc(-c3cnc(N4CCC(CCN5CCN(c6ccc7c(c6)C(=O)N(C6CCC(=O)NC6=O)C7=O)CC5)CC4)c(F)c3)nc2c1 (stereo not drawn) [Compound 680, 5-(4-(2-(1-(5-(7-(dimethylamino)imidazo [1,2-a]pyridin-2-yl)-3-fluoropyridin-2-yl)piperidin-4-yl)ethyl)piperazin-1-yl)-2-(2,6-dioxopiperidin-3-yl)isoindoline-1,3-dione] |  | remaining activity at 1 µM (CHOK1 Tau P301L cells, remaining tau in sarkosyl insoluble pellet, 48 hours with test compound at 1 μM, doxycycline removed for last 24 hours): < 50%
7 | O=C1CCC(N2C(=O)c3ccc(N4CCN(CCCC5CCN(CC6CC(Oc7ccc(-c8ccc9c(c8)[nH]c8ccncc89)cn7)C6)CC5)CC4)cc3C2=O)C(=O)N1 (stereo not drawn) [Compound 376, 5-(4-(3-(1-(((1r,3r)-3-((5-(5H-pyrido[4,3-b]indol-7-yl)pyridin-2-yl)oxy)cyclobutyl)methyl)piperidin-4-yl)propyl)piperazin-1-yl)-2-(2,6-dioxopiperidin-3-yl)isoindoline-1,3-dione] |  | Tau Protein Degradation effect at 1 μM [1]: B (>50% of tau protein remaining (≥50% of tau protein degraded))
8 | Cc1ncsc1-c1ccc([C@H](C)NC(=O)[C@@H]2C[C@@H](O)CN2C(=O)[C@@H](c2cc(OCCOCCOCCOc3ccc(-c4ccc5c(c4)[nH]c4ccncc45)cn3)no2)C(C)C)cc1 [Compound 396] |  | Tau Protein Degradation effect at 1 μM [1]: A (≤50% of tau protein remaining (>50% of tau protein degraded))
9 | O=C1CCC(N2C(=O)c3ccc(N4CCN(CCC5CCN(c6ncc(-c7ccc8c9cnccc9n(C(F)F)c8n7)cc6F)CC5)CC4)cc3C2=O)C(=O)N1 (stereo not drawn) [Compound 674, 5-(4-(2-(1-(5-(9-(difluoromethyl)-9H-pyrrolo[2,3-b:4,5-c′]dipyridin-2-yl)-3-fluoropyridin-2-yl)piperidin-4-yl)ethyl)piperazin-1-yl)-2-(2,6-dioxopiperidin-3-yl)isoindoline-1,3-dione] | < 50% | 
